# Columns and labels:
# MDM2-IE2 interaction = experiment: Co-immunoprecipitation of MDM2 and IE2 in transfected HEK293 cells; format: cell-based; conditions: HEK293 cells transfected with IE1/2; emetine 75 nM or GCV 5 μM, 4 h
# Experimental: Transient transfections. HEK-293 cells seeded into 10 cm petri dishes were transfected with HCMV plasmid encoding IE1 and IE2 (pRL45) plasmid, 1 μg/dish, using Lipofectamine 2000 in serum free medium. After 6 h, 10% FBS containing media was added along with 10 μM of MG132. […] Cells were then harvested to prepare lysates for IP.
# Co-immunoprecipitation (IP) and immunoblotting. Non-infected, infected or emetine-treated HFFs were treated with MG132 (10 μM) for 12 h. Cells were harvested after 24 hpi and lysed with IP buffer containing 150 mM NaCl, 50 mM Tris pH 7.5, 2 mM EDTA, 0.5% TritonX-100 and 0.5% NP-40-40. 1 mg of lysate was precleared with bead slurry for 30 min. The precleared lysates were incubated with anti-MDM2 (2 μg) antibody overnight. The antibody complexes were isolated using protein A/G beads (Santa Cruz), washed three times with 50% IP buffer. The immunoprecipitate—protein A/G beads were boiled in SDS sample buffer, and the supernatant was analyzed on SDS-PAGE gels after immunoblotting as described previously. […] Reverse IPs were performed by pulling down the precleared lysates with either anti-p53 antibody or anti-RPS14 antibody and detected with MDM2. […] In other experiments, transfected or treated HEK293 cell lysates were pulled-down with anti-IE2 antibody and detected with anti-MDM2 antibody and vice-versa for reverse IP.
# [1] = tested on: pp28-luciferase HCMV Towne; experiment: microbe, parasite or virus in culture; format: cell-based, human cytomegalovirus (HCMV); conditions: HFFs 0.5-2 million cells/plate; emetine 75 nM, GCV 5 μM
# From the text: A GCV-resistant pp28-luciferase HCMV strain, with a C607Y mutation in UL97 was also used. The recombinant viruses express luciferase under the control of the late CMV gene promoter, pp28. […] The recombinant viruses provide a highly-sensitive and reproducible reporter system which correlates with the classic plaque reduction assay. […] Human herpes virus strains were: luciferase HSV1-KOS/Dlux/oriS and clinical isolates of HSV2.
# Cell culture, virus infection and anti-viral assays. […] Infection with HCMV or HSV was performed in HFFs, and infection with mouse CMV was performed in MEFs. For HCMV, cells were seeded in either a 96-well plate or 100 mm culture plates (Corning Costar, Sigma Aldrich) at 0.5 or 2 million cells/plate. Following 90 minute adsorption, media was removed and cells were washed with PBS. Media containing 4% FBS and compounds were added to each well. Infected treated HFFs were collected at 72 hpi and lysates were assayed for luciferase activity using a luciferase assay kit (Promega, Madison, WI) on GloMax®-Multi+Detection System (Promega). In second cycle assays, supernatants were collected from all conditions of the first cycle at 96 hpi and used for infection of fresh HFFs in 96-well-plates. […] For HSV1-KOS/Dlux/oriS, a luciferase assay was performed at 24 hpi. Plaque assays were performed with clinical isolates of HSV2 and HCMV Towne. […] Following virus adsorption (60 min and 90 min for HSV and HCMV, respectively), virus was aspirated, and DMEM containing 4% fetal bovine serum (FBS) with (for HSV) or without (for HCMV) 0.5% carboxymethyl-cellulose, were added with the compounds at indicated concentrations into triplicate wells. After incubation at 37° C. for 10 days (for HCMV) or 2 days (for HSV), the overlay was removed and plaques were counted after crystal violet staining.
# HCMV = experiment: Generation of drug resistant virus; format: cell-based, human cytomegalovirus (HCMV); conditions: 5 passages, two fold increases of concentration
# Experimental: Generation of drug resistant virus. Screening of drug resistant virus was performed as reported. Two million cells were plated on a 6-well plate and infected with HCMV (MOI 0.05). […] The cells were maintained in DMEM with 4% FBS until plaques were observed. The supernatants from these plates were used to infect fresh HFFs in a 6-well plate and each time drug concentration was increased by two fold. […] DNA extracted from supernatants collected at the last stage was used for UL97 sequencing.
# HCMV entry = experiment: Virus entry immunofluorescence assay for pp65; format: cell-based; conditions: emetine 75 nM, GCV 10 μM, CpG 2006 10 μM; added 24 h prior to infection
# Experimental: Immunofluorescence. […] Compounds were diluted in serum-free medium and added to HFFs seeded on chamber slides 24 h prior to infection. After infection and treatment, cells were fixed, permeabilized, and air-dried. Cells were then incubated with mouse monoclonal anti-pp65 antibody at 37° C. in humidified chambers for 1 h, washed three times with 0.1% Tween 20 in PBS (PBST), incubated with rhodamine conjugated anti-mouse IgG (Sigma Chemical Co) at 37° C. in humidified chambers for 1 h, and washed with PBST (0.1% Tween 20). A drop of mount oil containing DAPI (4,6-diamidino-2-phenylindole) (Santa Cruz) was added to the slides before visualization with a Nikon Eclipse E-800 fluorescence microscope.
smiles,measurement,setting,value
"Nc1nc(O)c2ncn(COC(CO)CO)c2n1 [GCV, Ganciclovir]",interaction of MDM2 and IE2,MDM2-IE2 interaction,no effect
same,HCMV inhibition in relation to cell density at time of infection,[1],inhibited HCMV replication irrespective of cell density
same,selection of resistant virus with increasing drug concentration,HCMV,did select for resistant mutants
same,inhibition of viral entry,HCMV entry,neither emetine nor GCV inhibited viral entry
